{"source": "paper PMC10401862", "about": "“A high-throughput dual system to screen polyphosphate kinase mutants for efficient ATP regeneration in L-theanine biocatalysis” (Biotechnology for Biofuels and Bioproducts, 2023)", "type_in_all_cases": "biochemical", "key": {"[1]": {"biological_target": "T1, ChPPK (Cytophaga hutchinsonii, UniProt A0A6N4SMB5, D82N)", "T1 construct": "gene CHU_0107; synthesized gene expressed in E. coli BL21(DE3) from pXMJ-19, Ni-NTA purified", "T1 sequence (A0A6N4SMB5 entry or part of it D82N)": "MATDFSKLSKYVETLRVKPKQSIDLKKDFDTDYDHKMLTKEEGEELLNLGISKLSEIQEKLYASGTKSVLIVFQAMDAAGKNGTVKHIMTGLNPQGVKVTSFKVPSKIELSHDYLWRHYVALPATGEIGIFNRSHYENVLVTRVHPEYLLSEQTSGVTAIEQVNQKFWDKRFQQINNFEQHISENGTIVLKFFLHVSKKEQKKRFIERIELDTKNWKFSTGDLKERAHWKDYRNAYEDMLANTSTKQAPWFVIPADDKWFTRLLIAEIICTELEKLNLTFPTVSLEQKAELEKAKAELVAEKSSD", "assay": "coupled hexokinase / G6PD assay, […] nm, double reciprocal plot", "settings": "100 mM Tris-HCl pH 8.0, 35 °C, MgCl2; polyP6 1 to 7.5 mM, ADP as co-substrate"}, "[2]": {"biological_target": "T2, ChPPK (Cytophaga hutchinsonii, UniProt A0A6N4SMB5, K103E)", "T2 construct": "gene CHU_0107; synthesized gene expressed in E. coli BL21(DE3) from pXMJ-19, Ni-NTA purified", "T2 sequence (A0A6N4SMB5 entry or part of it K103E)": "as the sequence (A0A6N4SMB5 entry or part of it D82N) above, with N82D, K103E counted along it", "assay": "coupled hexokinase / G6PD assay, […] nm, double reciprocal plot", "settings": "100 mM Tris-HCl pH 8.0, 35 °C, MgCl2; polyP6 1 to 7.5 mM, ADP as co-substrate"}, "[3]": {"biological_target": "T3, ChPPK (Cytophaga hutchinsonii, UniProt A0A6N4SMB5)", "T3 construct": "gene CHU_0107; synthesized gene expressed in E. coli BL21(DE3) from pXMJ-19, Ni-NTA purified", "T3 sequence (A0A6N4SMB5 1-305)": "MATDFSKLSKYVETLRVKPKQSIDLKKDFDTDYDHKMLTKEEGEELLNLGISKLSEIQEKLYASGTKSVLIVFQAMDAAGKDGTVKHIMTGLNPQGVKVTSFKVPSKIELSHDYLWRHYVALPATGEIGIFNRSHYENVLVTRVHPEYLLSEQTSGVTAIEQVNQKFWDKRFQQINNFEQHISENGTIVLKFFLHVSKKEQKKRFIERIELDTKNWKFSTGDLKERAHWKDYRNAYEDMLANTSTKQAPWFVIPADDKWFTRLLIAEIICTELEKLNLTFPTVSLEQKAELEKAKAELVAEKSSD", "assay": "coupled hexokinase / G6PD assay, […] nm, double reciprocal plot", "settings": "100 mM Tris-HCl pH 8.0, 35 °C, MgCl2; polyP6 1 to 7.5 mM, ADP as co-substrate"}, "[4]": {"biological_target": "T4, GS (Corynebacterium glutamicum, UniProt H7C697)", "T4 construct": "gene glnA; expressed in E. coli BL21(DE3), Ni-NTA purified", "T4 sequence (H7C697 1-477)": "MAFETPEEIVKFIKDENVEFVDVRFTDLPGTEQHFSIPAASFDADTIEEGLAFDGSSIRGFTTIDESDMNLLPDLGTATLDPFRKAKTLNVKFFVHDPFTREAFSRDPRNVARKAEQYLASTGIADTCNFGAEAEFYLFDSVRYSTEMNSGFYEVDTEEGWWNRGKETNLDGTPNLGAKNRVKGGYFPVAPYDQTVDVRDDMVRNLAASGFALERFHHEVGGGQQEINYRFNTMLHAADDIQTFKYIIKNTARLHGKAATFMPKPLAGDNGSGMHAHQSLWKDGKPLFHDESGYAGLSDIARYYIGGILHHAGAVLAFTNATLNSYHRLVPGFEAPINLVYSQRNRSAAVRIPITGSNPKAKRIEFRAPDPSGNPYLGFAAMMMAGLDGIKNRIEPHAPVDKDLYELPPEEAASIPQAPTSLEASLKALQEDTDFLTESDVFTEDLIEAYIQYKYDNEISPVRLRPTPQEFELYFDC", "assay": "L-glutamine production, HPLC with OPA derivatization", "settings": "Tris-HCl pH 8.0, 37 °C, 100 mM (NH4)2SO4, 150 mM ATP, 50 mM MgCl2"}, "[5]": {"biological_target": "T5, PaPPK2III (Pseudomonas aeruginosa, UniProt Q9HYF1)", "T5 construct": "gene PA3455; expressed in E. coli BL21(DE3) from pET-28a, Ni-NTA purified", "T5 sequence (Q9HYF1 1-496)": "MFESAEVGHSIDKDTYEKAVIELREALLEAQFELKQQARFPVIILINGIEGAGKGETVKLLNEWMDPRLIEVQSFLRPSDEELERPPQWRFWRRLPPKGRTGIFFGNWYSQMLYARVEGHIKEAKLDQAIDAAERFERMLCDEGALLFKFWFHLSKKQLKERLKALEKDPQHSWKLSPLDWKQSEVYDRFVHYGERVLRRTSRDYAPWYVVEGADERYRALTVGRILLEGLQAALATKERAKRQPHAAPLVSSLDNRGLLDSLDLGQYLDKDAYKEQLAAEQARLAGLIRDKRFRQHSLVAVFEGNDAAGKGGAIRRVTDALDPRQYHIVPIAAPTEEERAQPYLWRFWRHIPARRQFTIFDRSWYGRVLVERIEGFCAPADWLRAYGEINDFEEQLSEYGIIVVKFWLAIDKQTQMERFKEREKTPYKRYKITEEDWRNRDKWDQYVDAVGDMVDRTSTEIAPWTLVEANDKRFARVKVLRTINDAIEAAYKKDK", "assay": "coupled hexokinase / G6PD assay, […] nm", "settings": "100 mM Tris-HCl pH 8.0, 35 °C, 10 mM ADP, 50 mM polyP6, 25 mM MgCl2"}, "[6]": {"biological_target": "T6, PaPPK2II (Pseudomonas aeruginosa, UniProt Q9I154)", "T6 construct": "gene PA2428; expressed in E. coli BL21(DE3) from pET-28a, Ni-NTA purified", "T6 sequence (Q9I154 1-304)": "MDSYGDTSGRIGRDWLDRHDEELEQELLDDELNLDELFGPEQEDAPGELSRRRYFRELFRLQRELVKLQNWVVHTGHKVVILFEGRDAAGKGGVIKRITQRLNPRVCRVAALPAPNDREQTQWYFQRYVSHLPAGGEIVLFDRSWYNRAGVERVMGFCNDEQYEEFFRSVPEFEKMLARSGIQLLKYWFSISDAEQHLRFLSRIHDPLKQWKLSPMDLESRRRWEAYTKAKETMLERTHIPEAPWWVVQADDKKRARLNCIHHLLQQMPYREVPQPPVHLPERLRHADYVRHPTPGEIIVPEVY", "assay": "coupled hexokinase / G6PD assay, […] nm", "settings": "100 mM Tris-HCl pH 8.0, 35 °C, 10 mM ADP, 50 mM polyP6, 25 mM MgCl2"}, "[7]": {"biological_target": "T7, EbPPK (Erysipelotrichaceae bacterium, UniProt P0DY74)", "T7 construct": "gene DHS57_05705; synthesized gene expressed in E. coli BL21(DE3) from pXMJ-19, Ni-NTA purified", "T7 sequence (P0DY74 1-298)": "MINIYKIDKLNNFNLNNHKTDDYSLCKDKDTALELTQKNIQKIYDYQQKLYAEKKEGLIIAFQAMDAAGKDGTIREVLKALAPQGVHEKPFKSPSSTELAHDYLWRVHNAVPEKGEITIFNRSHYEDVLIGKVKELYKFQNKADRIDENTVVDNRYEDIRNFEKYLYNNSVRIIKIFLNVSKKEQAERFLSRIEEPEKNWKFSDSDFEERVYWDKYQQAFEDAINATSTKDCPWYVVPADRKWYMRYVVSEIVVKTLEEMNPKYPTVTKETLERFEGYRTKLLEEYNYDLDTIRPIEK", "assay": "coupled hexokinase / G6PD assay, […] nm", "settings": "100 mM Tris-HCl pH 8.0, 35 °C"}}}
{"molecule": "polyP6", "values": [{"measurement": "Km", "setting": "[1]", "value": "2120 ± 10", "unit": "µM"}, {"measurement": "Km", "setting": "[2]", "value": "2240 ± 20", "unit": "µM"}, {"measurement": "Km", "setting": "[3]", "value": "2300 ± 20", "unit": "µM"}]}
{"molecule": "N[C@@H](CCC(=O)O)C(=O)O", "note": "[L-glutamate]", "values": [{"measurement": "L-glutamine production, HPLC with OPA derivatization", "setting": "[4]", "value": "We performed glutamine production from glutamate with GS enzyme"}]}
{"molecule": "Nc1ncnc2c1ncn2[C@@H]1O[C@H](COP(=O)(O)OP(=O)(O)O)[C@@H](O)[C@H]1O", "note": "[ADP]", "values": [{"measurement": "coupled hexokinase / G6PD assay, 340 nm", "setting": "[5]", "value": "the specific activities of the seven PPK enzymes"}, {"measurement": "coupled hexokinase / G6PD assay, 340 nm", "setting": "[6]", "value": "the specific activities of the seven PPK enzymes"}, {"measurement": "coupled hexokinase / G6PD assay, 340 nm", "setting": "[7]; 10 mM ADP, 50 mM polyP6, 25 mM MgCl2", "value": "polyP3, polyP6 and polyPn were carried out to show the specific activities"}]}
{"molecule": "Nc1ncnc2c1ncn2[C@@H]1O[C@H](COP(=O)(O)O)[C@@H](O)[C@H]1O", "note": "[AMP]", "values": [{"measurement": "coupled hexokinase / G6PD assay, 340 nm", "setting": "[7]; 10 mM AMP, polyP6, 25 mM MgCl2", "value": "EbPPK was capable of the best catalytic efficiency for converting AMP"}]}
